The text below walks through data of patent US4847302A, “Use of certain compounds in livestock food as growth promotants for better feed utilization and improved carcass composition” (Merck & Co., Inc., priority 1988, dated 1989).

Test [1] concerns Isolated Chicken Hepatocytes. Briefly: Inhibition of lipogenesis (14C acetate incorporation) in isolated chicken hepatocytes. Format: cell-based. The following applies: for inhibition at 0.01 µM / inhibition at 0.05 µM / inhibition at 0.25 µM: Gallus gallus, Hepatocyte, 2 h, Test 1, read-out: percent change compared to control, 14C acetate incorporation in fatty acids. The protocol: Determination of anti-lipogenic activity in hepatocytes
Hepatocytes were isolated from chicken liver using the procedure for adipocytes and incubated for 2 hours at 37° C. in the presence of ^14 C acetate and test compounds. […] Isoproterenol, at the same concentrations, was used as a positive control. After incubation, 8 ml Doles reagent (isopropanol:hexane:H2 SO4, 40:10:1) was added and incubation vials were shaken at room temperature for 30 minutes. Vial contents were poured into 50 ml screw-cap tubes. Vials were then rinsed with 6 ml hexane which was poured into the appropriate 50 ml tube. Tubes were shaken by hand, 10 ml H2 O was added, and tubes were shaken again. After phase separation, 2 ml of the upper (hexane) phase was removed to scintillation vials. Hexane was evaporated by a gentle air flow and the remaining lipids were resuspended in 10 ml Scinti Verse II. ^14 C was counted in a Packard liquid scintillation counter. Data are reported as CPM of ^14 C acetate incorporated into total lipids.

Test [2] concerns Isolated Swine Adipocytes. Briefly: Stimulation of lipolysis (glycerol production) in isolated swine adipocytes. The format is cell-based. The following applies: Sus scrofa, Adipocyte, 2 h. Here is the method: (§1) Fat was collected from freshly killed animals as follows: epididymal and perirenal fat from 150 to 200 g male rates; perirenal fat from 20 to 25 kg whether lambs, and perirenal and omental fat from 35 to 50 kg gilts. Immediately after collection, fat was placed in a siliconized beaker (all glassware was siliconized) containing Krebs-Ringer bicarbonate solution (KRB; pH 7.4) at 37° C. Fat was transferred to a clean beaker and finely chopped with scissors. Chopped fat was then used as such (whole adipose preparation) or treated with collagenase (isolated adipocytes).
(§2) Chopped fat was placed in a shaker containing 70 ml cell dispersion medium (CDM; 5 mM glucose, 0.1% collagenase, 4% bovine serum albumin (BSA), in KRB) and incubated at 37° C. for 1 hour with gentle shaking. Fat was then filtered to remove clumps and washed 4 times with washing medium (WM; 2.5 mM glucose, 1% BSA, in KRB) and 1 time with final suspension medium (FSM; 2.5 mM glucose, 2% essentially fatty acid free BSA, in KRB). Isolated adipocytes were then resuspended in the required amount of FSM (1 ml/flask, 3 flasks/treatment).
(§3) Whole adipose tissue from the rat (0.3 ml) or isolated adipocytes from sheep or swine (1 ml) were placed in plastic scintillation vials containing FSM (1.7 or 1 ml, respectively) and test compounds, and incubated at 37° C. for 2 hours. […] Isoproterenol, at the same concentrations, was used as a positive control. After incubation, media was removed and assayed for glycerol by a fluorometric modification of the method of Wieland (1974. Glycerol UV-method. pp. 1404. In: Bergmeyer (Ed.) Methods of Enzymatic Analysis. Verlag Chemie Weinham, Academic Press, New York).

Test [3] relates to Isolated Ovine Adipocytes. Briefly: Stimulation of lipolysis (glycerol production) in isolated ovine adipocytes. The format is cell-based, sheep. The protocol:
as §1, §2, §3

The test system of a further test is Rat Adipose Tissue. Briefly: Stimulation of lipolysis (glycerol production) in chopped rat adipose tissue. Format: cell-based. Conditions: Rattus norvegicus, 2 h. The protocol:
as §1
Whole adipose tissue from the rat (0.3 ml) or isolated adipocytes from sheep or swine (1 ml) were placed in plastic scintillation vials containing FSM (1.7 or 1 ml, respectively) and test compounds, and incubated at 37° C. for 2 hours. […] Isoproterenol, at the same concentrations, was used as a positive control. After incubation, media was removed and assayed for glycerol by a fluorometric modification of the method of Wieland (1974. Glycerol UV-method. pp. 1404. In: Bergmeyer (Ed.) Methods of Enzymatic Analysis. Verlag Chemie Weinham, Academic Press, New York). […]

Test [4] in a line: In vivo testing in rats: growth, feed conversion and carcass composition. Also on record: species or system rat (male Charles River CD). Conditions: in diet, dose equivalent to 20 ppm clenbuterol (clenbuterol: 10). From the text: Eighty intact, male Charles River CD rats, 75-90 g, were housed and maintained on rat chow and water ad libitum. After four days acclimation ten rats per group were randomized by weight to treatment and pen. Compounds to be tested were premixed and added to ground rat chow using doses equivalent to 20 ppm of clenbuterol on a molecular weight basis. It had previously been determined 10 ppm of clenbuterol was the minimum dose needed to give maximum improvements in gain and feed conversion. Therefore, the results of any compound tested should cause responses similar to clenbuterol if the compound has half or more the activity of clenbuterol.

The nature of test [5]: Growth promoting activity / feed utilization in livestock (general statements). Format: in vivo.
Where [6] appears, read: Test 1, read-out: percent increase compared to control, glycerol production.
Where [7] appears, read: Ovis aries, Adipocyte, 2 h, Test 1, read-out: percent increase compared to control, glycerol production.
[8] abbreviates: read-out: percent increase compared to control, glycerol production, Test 1.
Where [9] appears, read: read-out: percent increase compared to control, glycerol production, Test 2.

Where two headings read alike, the source gives them in different places.

In the case of `CC(CCc1ccccc1)NCC(O)c1ccc(N)nc1` (stereo not shown) [IV], in test [1], the inhibition at 0.01 µM worked out at 33.7%, the inhibition at 0.05 µM was found to be 54.3% and the inhibition at 0.25 µM was 63.2%. Moreover, in test [1] (chicken hepatocytes), the “antilipogenic activity relative to clenbuterol” value is “greater than 125 times” and the “antilipogenic activity relative to isoproterenol” value was “five times”. In test [2] (setting [6]), the activation at 0.01 µM was 260%, the activation at 0.05 µM was found to be 333% and the activation at 0.25 µM came to 80%. For the same compound, the activation at 0.01 µM in test [3] (setting [7]) was 820%. Moreover, in the test on Rat Adipose Tissue (setting [6]), the activation at 0.01 µM was 114%, the activation at 0.05 µM came to 219% and the activation at 0.25 µM worked out at 334%. In addition, the Gain in test [4] (Test 2, control 7.5) turned out to be 8.4 g/day. In addition, in test [4] (Test 2, control 19.3), the “Feed Intake” value was 20.7 g/day. In addition, the Weight in test [4] (Test 2, control 202.3) came out at 214.7 g. Further, in test [4] (Test 2), the “Carcass Composition % of Change over Control, Fat” value is listed as -16.1% and the “Carcass Composition % of Change over Control, Protein” value worked out at 5.0%. Moreover, the “activity in all species under consideration” value in test [5] is listed as “high activity in all species under consideration”.

With `CC(C)(C)NCC(O)c1ccc(O)c(O)c1` (stereo not shown) [Compound X, Colterol], the “growth promoting activity, oral” value in test [5] (administered orally) is “very little activity”. For the same compound, in test [5] (administered parenterally), the “growth promoting activity, parenteral” value is “substantially active”.

For the compound `CC(C)(C)NCC(O)c1cc(Br)no1` (stereo not shown) [II], in test [1], the inhibition at 0.01 µM was 0%, the inhibition at 0.05 µM was 0% and the inhibition at 0.25 µM stood at 7.9%. For the same compound, in test [2] (setting [6]), the activation at 0.01 µM is 27%, the activation at 0.05 µM is -7% and the activation at 0.25 µM is -40%. In test [3] (Ovis aries, Adipocyte, 2 h, Test 1, 0.25 μM, read-out: percent increase compared to control, glycerol production), the activation at 0.25 µM stood at 325%. For the same compound, in test [3] (Test 1, 0.05 μM), the “percent increase compared to control, glycerol production” value is “inactive”. Moreover, in the test with Rat Adipose Tissue (setting [6]), the activation at 0.01 µM was 51%, the activation at 0.05 µM was 15% and the activation at 0.25 µM is 35%. For the same compound, in test [4] (Test 2, control 7.5), the Gain is on record as 8.4 g/day. The “Feed Intake” value in test [4] (Test 2, control 19.3) was 21.1 g/day. Besides, the Weight in test [4] (Test 2, control 202.3) is 215.9 g. Besides, in test [4] (Test 2), the “Carcass Composition % of Change over Control, Fat” value was -9.3% and the “Carcass Composition % of Change over Control, Protein” value worked out at 3.8%.

Consider `COc1ccc(CNc2cc(C(O)CNC(C)(C)C)ccc2O)cc1` (stereo not shown) [III], for which, in test [1], the inhibition at 0.01 µM was found to be 9.5%, the inhibition at 0.05 µM worked out at 35.5% and the inhibition at 0.25 µM stood at 54.4%. Also, in test [2] (setting [6]), the activation at 0.01 µM came out at 20%, the activation at 0.05 µM turned out to be 33% and the activation at 0.25 µM was 53%. Also, the activation at 0.01 µM in test [3] (setting [7]) stood at 465%. The activation at 0.05 µM in test [3] (Ovis aries, Adipocyte, 2 h, Test 1, 0.05 μM, read-out: percent increase compared to control, glycerol production) came out at 845%. In addition, in the test with Rat Adipose Tissue (setting [6]), the activation at 0.01 µM worked out at 194%, the activation at 0.05 µM is 203% and the activation at 0.25 µM is 334%. Besides, the Gain in test [4] (Test 1, control 7.3) is listed as 8.0 g/day. Moreover, in test [4] (Test 1, control 18.6), the “Feed Intake” value is 19.4 g/day. For the same compound, the Weight in test [4] (Test 1, control 191.8) is recorded as 201.7 g. Also, in test [4] (Test 1), the “Carcass Composition % of Change over Control, Fat” value was -7.0% and the “Carcass Composition % of Change over Control, Protein” value was found to be 6.1%.

For `COc1ccc(CC(C)NCC(O)c2ccc(O)c(NC=O)c2)cc1` (stereo not shown) [IX, Formoterol], the activation at 0.01 µM came to 207% in test [2] (setting [8]); 340% in test [2] (setting [9]); 675% in test [3] (Ovis aries, Adipocyte, 2 h, read-out: percent increase compared to control, glycerol production, Test 1); 42% in the test on Rat Adipose Tissue (setting [8]); 16% in the test with Rat Adipose Tissue (setting [9]). Besides, the activation at 0.05 µM worked out at 267% in test [2] (setting [8]); 600% in test [2] (setting [9]); 695% in test [3] (Ovis aries, Adipocyte, 2 h, read-out: percent increase compared to control, glycerol production, Test 1, 0.05 μM); 91% in the test with Rat Adipose Tissue (setting [8]); 70% with Rat Adipose Tissue (setting [9]). The activation at 0.25 µM in test [2] (setting [8]) was found to be 187%; in test [2] (setting [9]), 844%; in the test with Rat Adipose Tissue (setting [8]), 258%; in the test on Rat Adipose Tissue (setting [9]) it was 145%. The Gain in test [4] (Test 1, control 7.3) came to 7.9 g/day. The “Feed Intake” value in test [4] (Test 1, control 18.6) is 19.1 g/day. For the same compound, in test [4] (Test 1, control 191.8), the Weight stood at 199.4 g. Besides, in test [4] (Test 1), the “Carcass Composition % of Change over Control, Fat” value is listed as -10.4%. Besides, the “Carcass Composition % of Change over Control, Protein” value in test [4] (Test 1) came out at 10.6%. In test [5], the “activity in all species under consideration” value is reported as “high activity in all species under consideration”.

For the compound `C[C@H](CCc1ccccc1)NC[C@H](O)c1ccc(N)nc1` [α-R,1R compound], the “activity compared with the other optical isomers of compound IV” value in test [5] (in vivo) is “significantly more active than the most active of the other isomers”.
